Literature values in patent publication US12649733B2, “3,6-diamino-pyridazin-3-yl derivatives, pharmaceutical compositions containing them and their uses as pro-apoptotic agents” (LES LABORATOIRES SERVIER, priority 2019, dated 2026).

Assays:
allogeneic T-cell = details: in vitro; cited from earlier work
lymphocyte proliferation = details: in vitro; cited from earlier work
[1] = mice, animal models of arthritis and lupus; cited from earlier work
[2] = test system: T-ALL patient derived xenograft models; details: in vivo; cited from earlier work
[3] = test system: allogeneic T- and B-cell responses; details: after skin transplantation; cited from earlier work

CN(C)CC[C@H](CSc1ccccc1)Nc1ccc(S(=O)(=O)NC(=O)c2ccc(N3CCN(Cc4ccccc4-c4ccc(Cl)cc4)CC3)cc2)cc1[N+](=O)[O-] [ABT-737]
allogeneic T-cell activation, proliferation, and cytotoxicity (allogeneic T-cell): prevented allogeneic T-cell activation, proliferation, and cytotoxicity | inhibition of lymphocyte proliferation (lymphocyte proliferation): potent inhibition of lymphocyte proliferation | disease severity [1]: significant decrease in disease severity | activity in T-ALL patient derived xenograft models [2]: promising activity | allogeneic T- and B-cell responses [3]: inhibited allogeneic T- and B-cell responses
